Assay results published in PubChem BioAssay AID1996.
Values after ≈ are worked out from the molar mass of the structure shown.

Conditions: buffer; pH 7.4; 200.0 µM

| solubility kinetic | SMILES |
| --- | --- |
| > 57.4 µg/mL | O=C(COc1ccc(F)cc1Cl)N1CCN(C(=O)c2cccs2)CC1 |
| 14.3 µg/mL (≈ 34.5 µM) | COCCCN(C(=O)C1CCCCC1)c1c(N)n(Cc2ccccc2)c(=O)[nH]c1=O |
| 1.9 µg/mL (≈ 4.87 µM) | COc1cccc(CNC(=O)COC(=O)c2c(NC(C)=O)sc(C)c2C)c1 |
| > 45.5 µg/mL | Cc1cc(C)cc(-c2nnc(SCC(=O)NC3CC3)o2)c1 |
| 43.2 µg/mL (≈ 128 µM) | COc1ccccc1C(=O)N1CCN(C(=O)Cc2ccccc2)CC1 |
| > 33.2 µg/mL | COC(=O)Cn1c(=O)oc2ccc(C)cc21 |
| 37.3 µg/mL (≈ 142 µM) | CCOC(=O)c1ccc(C(=S)N2CCCC2)cc1 |
| 1.3 µg/mL (≈ 4.54 µM) | O=C(Nc1cccc(O)c1)c1cc(-c2cccs2)on1 |
| > 41.3 µg/mL | O=C(/C=C/c1ccc2c(c1)OCO2)NCC1CCCO1 (stereo not given) |
| > 43.4 µg/mL | CC(NC(=O)COC(=O)C1CCCCC1)c1ccccc1 (stereo not given) |
| 25.9 µg/mL (≈ 91.4 µM) | Fc1ccccc1CN1CCC(Cc2ccccc2)CC1 |
| 3.6 µg/mL (≈ 9.61 µM) | Cc1ccc(NC(=O)COC(=O)C2(CC(=O)NC(C)C)CCCC2)cc1C |
| > 41.2 µg/mL | COc1ccc(C(C)=O)cc1CSC(=N)N.Cl |
| 40.7 µg/mL (≈ 120 µM) | CN1CCN(C(=O)/C(=C/c2ccco2)NC(=O)c2ccccc2)CC1 |
| > 44.1 µg/mL | O=C(CCl)Nc1c2c(nn1-c1ccccc1)CSC2 |
| > 57.4 µg/mL | CC1CCN(C(=O)Cn2cc(C(F)(F)F)ccc2=O)c2ccccc2S1 (stereo not given) |
| > 51.4 µg/mL | O=C(O)C1CCC1C(=O)Nc1nc(-c2ccc(Cl)s2)cs1 (stereo not given) |
| 51.3 µg/mL (≈ 147 µM) | CCOC(=O)c1cc(NC(=O)CCC(=O)O)ccc1N1CCCCC1 |
| 34.3 µg/mL (≈ 115 µM) | O=C(Nc1ccccc1Oc1ccccc1)C1=COCCO1 |
| 38.3 µg/mL (≈ 119 µM) | Cc1ccc2[nH]cc(CCNC(=O)c3ccc4c(c3)OCO4)c2c1 |
| 4 µg/mL (≈ 17.4 µM) | O=C(Nc1nc2ccccc2[nH]1)C1CCCC1 |
| 25.9 µg/mL (≈ 113 µM) | Cc1cc(C(=O)Nc2ccccc2)oc(=O)c1 |
| 49 µg/mL (≈ 150 µM) | O=C1C(Cc2c[nH]c3ccccc23)NC(=S)N1C1CCCCC1 (stereo not given) |
| 14.3 µg/mL (≈ 62.1 µM) | CCc1ccc(NC(=O)c2cc(C)no2)cc1 |

More lines, now with the values behind:

| SMILES | solubility kinetic |
| --- | --- |
| O=C(c1c(Cl)cccc1Cl)N1CCN(c2ncccn2)CC1 | > 50.6 µg/mL |
| Cn1c(=O)[nH]c(=O)c2c1nc(NCCN)n2CCOc1ccccc1 | 49.1 µg/mL (≈ 143 µM) |
| N#CC1=C(N)Oc2cc(N)ccc2C1c1ccccc1F (stereo not given) | 4.9 µg/mL (≈ 17.4 µM) |
| CC(CCc1ccccc1)NC(=O)COC(=O)c1cccnc1Cl (stereo not given) | > 52 µg/mL |
| CC(C)c1ccccc1OCC(=O)N1CCCN(C)CC1 | > 43.6 µg/mL |
| N#Cc1ccc(NCCc2ccccn2)c([N+](=O)[O-])c1 | > 40.2 µg/mL |
| O=C(Nc1ccc(NC(=O)c2ccccc2F)cc1)c1ccccc1F | < 0.4 µg/mL |
| C/C(=N/OC(=O)c1cccc(C(F)(F)F)c1)c1cnccn1 | 3.5 µg/mL (≈ 11.3 µM) |
| COCCNc1nc(SC)nc2sc3c(c12)CCN(C)C3 | 46.5 µg/mL (≈ 143 µM) |
| Cc1cccc(C(=O)O/N=C(/c2ccccc2)c2ccncc2)c1 | < 0.3 µg/mL |
| O=Cc1c(NCc2ccccc2Cl)c2ccccc2[nH]c1=O | 17.7 µg/mL (≈ 56.6 µM) |
| C=Cn1ccnc1CC(O)c1ccc(OC)cc1 (stereo not given) | 33.9 µg/mL (≈ 139 µM) |
| COC(=O)Cc1c(O)ccn(Cc2ccc(OC)c(OC)c2)c1=O | > 50 µg/mL |
| Cc1ccnc(NCc2ccc(Br)cc2)c1 | 2.3 µg/mL (≈ 8.3 µM) |
| COC(OC)c1ccc(C#N)c(SCc2ccccc2)n1 | 9.4 µg/mL (≈ 31.3 µM) |
| O=S1(=O)CCC(=Nc2ccc(Cl)cc2)c2ccsc21 | 20.3 µg/mL (≈ 65.1 µM) |
| COC(=O)C(CC(C)C)NC(=O)c1cccs1 (stereo not given) | > 38.3 µg/mL |
| Cl.NCCSC1CC(=O)N(c2ccc(Cl)c(Cl)c2)C1=O (stereo not given) | 32.8 µg/mL |

| SMILES | solubility kinetic |
| --- | --- |
| O=S(=O)(c1cc(F)ccc1F)N1CCN(c2ncccn2)CC1 | 46.9 µg/mL (≈ 138 µM) |
| Cc1cc(C)cc(C(=O)N2CCC3(CC2)NCCc2[nH]cnc23)c1 | > 48.7 µg/mL |
| O=C(O)c1cccc(Nc2c3ccccc3nc3ccccc23)c1 | 2.4 µg/mL (≈ 7.63 µM) |
| CCNc1nc(NCc2ccccc2)nc(SCC(N)=O)n1 | 42.2 µg/mL (≈ 133 µM) |
| CCn1cc(C(=O)OCC(=O)Nc2ccccc2OC(F)F)c(=O)c2ccc(C)nc21 | 4.8 µg/mL (≈ 11.1 µM) |
| CCOC(=O)c1ccc(NC(=O)CSCCC(=O)O)cc1 | 45.1 µg/mL (≈ 145 µM) |
| Cn1ccnc1SCc1cccc([N+](=O)[O-])c1 | > 37.4 µg/mL |
| CCc1ccc(N2CN(Cc3ccco3)CNC2=S)cc1 | 11.9 µg/mL (≈ 39.5 µM) |
| Cc1cc(Cl)c2ccc(Cl)cc2n1 | < 0.5 µg/mL |
| Cc1cccc(C)c1N1CCN(S(=O)(=O)c2ccccc2)CC1 | < 0.4 µg/mL |
| O=[N+]([O-])c1ccccc1OC/C(=N\O)c1ccccc1 | > 40.8 µg/mL |
| Cc1ccc(C(=O)O/N=C(\N)c2ccccn2)c(Cl)c1 | 42.4 µg/mL (≈ 146 µM) |
| CCOC(=O)c1nccnc1C(=O)Nc1cccc(C(F)(F)F)c1 | 47.5 µg/mL (≈ 140 µM) |
| O=C1NC(=Nc2ccccc2)SC1Cc1ccccc1 (stereo not given) | 4.6 µg/mL (≈ 16.3 µM) |
| CC1CN(C(=S)NC2CCCC2)CC(C)O1 (stereo not given) | > 36.4 µg/mL |
| COc1ccc(-c2csc3ncn(Cc4ccccc4)c(=O)c23)cc1 | 1.4 µg/mL (≈ 4.02 µM) |
| CC(C)c1ccc(S(=O)(=O)N2CCN(C(=O)CN3C(=O)c4ccccc4C3=O)CC2)cc1 | 3.1 µg/mL (≈ 6.81 µM) |
| CSc1ccccc1C(=O)N1CCc2ccccc2C1 | > 42.5 µg/mL |
